The values that follow come from US10336788B2, “Inhibition of cardiac fibrosis in myocardial infarction” (Moerae Matrix, Inc., priority 2014, dated 2019).

One data set concerns C57BL/6 mice. Description: Conscious echocardiography of cardiac function after acute myocardial infarction (permanent LAD ligation). The source says: Eight to ten week old C57BL/6 mice (25-30 g) were obtained from Charles River (Wilmington, Mass.) and maintained for at least 7 days with free access to standard rodent food and water. Myocardial infarction was induced by permanent ligation of the left anterior descending (LAD) coronary artery as described previously [Maejima Y, Kyoi S, Zhai P, Liu T, Li H, Ivessa A, et al. Mst1 inhibits autophagy by promoting the interaction between Beclin1 and Bcl-2. Nature Medicine. 2013; 19:1478-88; Qian L, Huang Y, Spencer C I, Foley A, Vedantham V, Liu L, et al. In vivo reprogramming of murine cardiac fibroblasts into induced cardiomyocytes. Nature. 2012; 485:593-8]. Post-surgery, mice were immediately treated with lidocaine (6 mg/kg IM) and atropine (0.04-0.10 mg/kg IM) upon surgical closure, followed by lidocaine and atropine every 2-4 hours for the first 24 hours to prevent arrhythmias. Post-anesthesia, mice were given 0.1 mg/kg buprenorphine every 12 hours for the first 48 hours. […] Cardiac function was measured by conscious echocardiography using a Vevo 2100 ultrasound biomicrscopy system (VisualSonics, Inc., Toronto, Canada) at baseline, 1, 7, and 14 days, as previously described [Oakley R H, Ren R, Cruz-Topete D, Bird G S, Myers P H, Boyle M C, et al. Essential role of stress hormone signaling in cardiomyocytes for the prevention of heart disease. Proc Natl Acad Scie USA. 2013; 110:17035-40; Willis M S, Homeister J W, Rosson G B, Annayev Y, Holley D, Holly S P, et al. Functional redundancy of SWI/SNF catalytic subunits in maintaining vascular endothelial cells in the adult heart. Circulation Res. 2012; 111:e111-22; Willis M S, Schisler J C, Li L, Rodriguez J E, Hilliard E G, Charles P C, et al. Cardiac muscle ring finger-1 increases susceptibility to heart failure in vivo. Circulation Res. 2009; 105:80-8].
Echocardiography was used to follow cardiac function and morphometry prior to the surgical induction of an acute myocardial infarction (AMI) induced by thoracotomy and ligation of the left anterior descending coronary artery in C57BL/6 mice. Cardiac function was then followed at 7 and 14 days post-AMI (FIG. 1A).

For a further data set, the system named is MK2. Description: Immunoblot analysis of MK2 activity (HNRNPA0, total MK2, p-MK2) in primary cardiac fibroblasts. The class given is cell-based, rat. How it is done:
Cells were rinsed in PMS and grown in DMEM (cat. #11966-025, Gibco) for 2 hours prior to initiating hypoxia (simulated ischemia). Hypoxia was induced by placing cells in a hypoxia chamber ([…] 150i, Thermo Scientific) in a mixture of 5% CO2/95% N2 to attain a 1% oxygen concentration, according to the manufacturer's instruction. […] The MMI-0100 peptide was added to the cells at the start of the ischemia time. Cells were cultured in 12 well plates. At the time of performing the experiments, all cultures were approximately 70-90% confluent. Three different time points were adopted for each of the three cell lines according to the severity of cell death under hypoxia determined by LDH release: for H9C2 cell line: 8 hr; 16 hr; 24 hr; for HL-1 cell line: 4 hr; 8 hr; 12 hr; for cardiac fibroblast cell line: 16 hr; 32 hr; 48 hr.
The left over cell lysates from the Caspase activity assay were used for the Western blots. […] After blocking with recommended blocking reagents for 1 h at the room temperature, the membranes were incubated overnight at 4° C. with primary antibodies in TBS-T, and then incubated with secondary antibodies conjugated with HRP in TBS-T. HNRNPA0, MAPK2, and phospho-MAPK2 proteins were detected using anti-HNRNPA0 (cat. #HPA036569, 1:1000, Sigma-Aldrich), anti-MAPKAPK2 (cat. #SAB4300553, Sigma-Aldrich), and anti-phospho-MAPKAPK2 (cat. #SAB4300241, 1:1000, Sigma-Aldrich). […]

No end group written: not given here.

As to YARAAARQARAKALARQLGVAA [MMI-0100], the “LV dilation: LVID; d decreased” value in the data set with C57BL/6 mice (AMI mice treated with MMI-0100, compared to sham, vs. 40% without MMI-0100) came to 29%. Moreover, in the data set on C57BL/6 mice (AMI mice treated with MMI-0100, compared to sham, vs. 130% without MMI-0100), the “LV dilation: LV Volume; d decreased” value worked out at 88%. For the same sequence, the “cardiac function compared to untreated AMI mice” value with C57BL/6 mice (AMI mice, 50 μg/kg/day intraperitoneally, first dose 30 minutes after LAD ligation, 1 and 2 weeks after AMI) is reported as “significantly greater function”. Further, the “effect on cardiac function, MMI-0100 alone” value in the data set with C57BL/6 mice (mice without AMI, daily MMI-0100 intraperitoneally for 14 days) was “did not have any effect”. Further, the “protein levels of MK2 and p-MK2” value in the data set with MK2 (compared to hypoxia alone) is recorded as “did not significantly differ”. For the same sequence, the “MK2 activity, as measured by HNRNPA0 protein levels” value in the data set with MK2 (hypoxia, 16, 32, or 48 hours) was “did not change”.
